Legend:
DNA-PK = target: T1, DNA-PK (Homo sapiens, UniProt P78527); test: DNA-PK Assay for Biochemical Enzymatic Inhibition (ADP Glo Kinase assay); details: Table 1
T1 construct: purchased Invitrogen PR9107A
Outline: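 Human DNA-PK (25 ng) preincubated 15 min with compounds (ten three-fold dilutions) in HEPES pH 7.5, MgCl2, KCl, calf thymus DNA buffer, then substrate 434.4 μM and ATP 64.4 μM (final) for 60 min at room temperature. ADP-Glo luminescence; percent inhibition fitted by four-parameter regression for IC50.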

[1] = target: T2, DNA-PK phosphorylation at Serine 2056 (Homo sapiens, UniProt P78527); test: Cellular Assay for Inhibition of DNA-PK Phosphorylation at Serine 2056 (FaDu cells, neocarzinostatin, sandwich ELISA); assay type: cell-based; details: Table 1
T2 construct: host or cells: FaDu
Outline: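 Readout was pSer2056 and total DNA-PK, measured by sandwich ELISA on protein-normalized lysates. Prior to lysis, compound was applied to FaDu cells for 1 h (0.3% DMSO), followed by 2 h of 1 μg/mL neocarzinostatin. IC50 values were fitted from log concentration versus % inhibition normalized to DMSO and NCS controls.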

Row | SMILES | IC50 (DNA-PK) [µM] | IC50 [1] [µM]
1 | FC(F)c1ccnc2cc(N3CCOCC3)nc(O[C@H]3CC[C@@H](Nc4ncccn4)CC3)c12 [Compound 22, N-((1s,4s)-4-((4-(Difluoromethyl)-7-morpholino-1,6-naphthyridin-5-yl)oxy)cyclohexyl)pyrimidin-2-amine] | < 0.0005 | < 0.1
2 | CN(C)C(=O)c1cnc(N[C@H]2CC[C@@H](Oc3nc(N4CCOCC4)cc4ncccc34)CC2)nc1 [Compound 53, N,N-dimethyl-2-(((1s,4s)-4-((7-morpholino-1,6-naphthyridin-5-yl)oxy)cyclohexyl)amino)pyrimidine-5-carboxamide] | 0.0005 to 0.001 | < 0.1
3 | NS(=O)(=O)c1cnc(N[C@H]2CC[C@@H](Oc3nc(N4CCOCC4)cc4ncccc34)CC2)nc1 [Compound 46, 2-(((1s,4s)-4-((7-morpholino-1,6-naphthyridin-5-yl)oxy)cyclohexyl)amino)pyrimidine-5-sulfonamide] | 0.0005 to 0.001 | 1 to 10
4 | COc1ccnc(N[C@H]2CC[C@@H](Oc3nc(N4CCOCC4)cc4ncccc34)CC2)n1 [Compound 49, 4-methoxy-N-((1s,4s)-4-((7-morpholino-1,6-naphthyridin-5-yl)oxy)cyclohexyl)pyrimidin-2-amine] | 0.0005 to 0.001 | 0.1 to 1
5 | Fc1cn([C@H]2CC[C@@H](Oc3nc(N4CCOCC4)cc4ncccc34)CC2)cn1 [Compound 17a, 4-(5-(((1s,4s)-4-(4-fluoro-1H-imidazol-1-yl)cyclohexyl)oxy)-1,6-naphthyridin-7-yl)morpholine] | 0.0005 to 0.001 | < 0.1
6 | Cc1cnc(N[C@H]2CC[C@@H](Oc3nc(N4CCOCC4)cc4ncccc34)CC2)nc1 [Compound 32, 5-Methyl-N-((1s,4s)-4-((7-morpholino-1,6-naphthyridin-5-yl)oxy)cyclohexyl)pyrimidin-2-amine] | < 0.0005 | 0.1 to 1
7 | O=C(N[C@H]1CC[C@@H](Oc2nc(N3CCOCC3)cc3ncccc23)CC1)c1cccnc1 [Compound 115, N-((1s,4s)-4-((7-morpholino-1,6-naphthyridin-5-yl)oxy)cyclohexyl)nicotinamide] | < 0.0005 | < 0.1
8 | O=C(N[C@H]1CC[C@@H](Oc2nc(N3CCOCC3)cc3ncccc23)CC1)c1ncccn1 [Compound 123, N-((1s,4s)-4-((7-Morpholino-1,6-naphthyridin-5-yl)oxy)cyclohexyl)pyrimidine-2-carboxamide] | < 0.0005 | 0.1 to 1
9 | c1cnc2cc(N3CCOCC3)nc(O[C@H]3CC[C@@H](Nc4ncc5[nH]ccc5n4)CC3)c2c1 [Compound 85, N-((1s,4s)-4-((7-Morpholino-1,6-naphthyridin-5-yl)oxy)cyclohexyl)-5H-pyrrolo[3,2-d]pyrimidin-2-amine] | < 0.0005 | < 0.1
10 | O=C(N[C@H]1CC[C@@H](Oc2nc(N3CCOCC3)cc3ncccc23)CC1)c1c[nH]cn1 [Compound 144, N-((1s,4s)-4-((7-morpholino-1,6-naphthyridin-5-yl)oxy)cyclohexyl)-1H-imidazole-4-carboxamide] | 0.0005 to 0.001 | < 0.1
11 | COc1cnc(N[C@H]2CC[C@@H](Oc3nc(N4CCOCC4)cc4ncc(NS(C)(=O)=O)cc34)CC2)nc1 [Compound 203, N-(5-(((1s,4s)-4-((5-methoxypyrimidin-2-yl)amino)cyclohexyl)oxy)-7-morpholino-1,6-naphthyridin-3-yl)methanesulfonamide] | < 0.0005 | < 0.1
12 | COc1cnc(N[C@H]2CC[C@@H](Oc3nc(N4CCOCC4)cc4ncc(O)cc34)CC2)nc1 [Compound 19c, 5-(((1s,4s)-4-((5-Methoxypyrimidin-2-yl)amino)cyclohexyl)oxy)-7-morpholino-1,6-naphthyridin-3-ol] | < 0.0005 | < 0.1
13 | Nc1cnc(N[C@H]2CC[C@@H](Oc3nc(N4CCOCC4)cc4ncccc34)CC2)nc1 [Compound 43, N2-((1s,4s)-4-((7-morpholino-1,6-naphthyridin-5-yl)oxy)cyclohexyl)pyrimidine-2,5-diamine] | < 0.0005 | < 0.1
14 | c1cnc2cc(N3CCOCC3)nc(O[C@H]3CC[C@@H](Nc4ncnc5ccsc45)CC3)c2c1 [Compound 83, N-((1s,4s)-4-((7-morpholino-1,6-naphthyridin-5-yl)oxy)cyclohexyl)thieno[3,2-d]pyrimidin-4-amine] | < 0.0005 | < 0.1
15 | O=C(N[C@H]1CC[C@@H](Oc2nc(N3CCOCC3)cc3ncccc23)CC1)c1ncco1 [Compound 142, N-((1s,4s)-4-((7-morpholino-1,6-naphthyridin-5-yl)oxy)cyclohexyl)oxazole-2-carboxamide] | 0.0005 to 0.001 | < 0.1
16 | c1cnc2cc(N3CCOCC3)nc(O[C@H]3CC[C@@H](Nc4cncnc4)CC3)c2c1 [Compound 28, N-((1s,4s)-4-((7-morpholino-1,6-naphthyridin-5-yl)oxy)cyclohexyl)pyrimidin-5-amine] | 0.0005 to 0.001 | < 0.1

Row | SMILES | IC50 (DNA-PK) [µM] | IC50 [1] [µM]
17 | c1cnc2cc(N3CCOCC3)nc(O[C@H]3CC[C@@H](Nc4ncnc5occc45)CC3)c2c1 [Compound 82, N-((1s,4s)-4-((7-morpholino-1,6-naphthyridin-5-yl)oxy)cyclohexyl)furo[2,3-d]pyrimidin-4-amine] | < 0.0005 | < 0.1
18 | FC(F)Oc1cnc(N[C@H]2CC[C@@H](Oc3nc(N4CCOCC4)cc4ncccc34)CC2)nc1 [Compound 35, 5-(Difluoromethoxy)-N-((1s,4s)-4-((7-morpholino-1,6-naphthyridin-5-yl)oxy)cyclohexyl)pyrimidin-2-amine] | 0.001 to 0.01 | < 0.1
19 | FC(F)(F)c1cncn1[C@H]1CC[C@@H](Oc2nc(N3CCOCC3)cc3ncccc23)CC1 [Compound 17j, 4-(5-(((1s,4s)-4-(5-(trifluoromethyl)-1H-imidazol-1-yl)cyclohexyl)oxy)-1,6-naphthyridin-7-yl)morpholine] | < 0.0005 | 0.1 to 1
20 | CS(=O)(=O)Nc1cnc2cc(N3CCOCC3)nc(O[C@H]3CC[C@@H](n4ccnc4)CC3)c2c1 [Compound 161, N-(5-(((1s,4s)-4-(1H-imidazol-1-yl)cyclohexyl)oxy)-7-morpholino-1,6-naphthyridin-3-yl)methanesulfonamide] | < 0.0005 | 0.1 to 1
21 | COc1ccc(N[C@H]2CC[C@@H](Oc3nc(N4CCOCC4)cc4ncccc34)CC2)nn1 [Compound 38, 6-methoxy-N-((1s,4s)-4-((7-morpholino-1,6-naphthyridin-5-yl)oxy)cyclohexyl)pyridazin-3-amine] | 0.0005 to 0.001 | < 0.1
22 | O=C(N[C@H]1CC[C@@H](Oc2nc(N3CCOCC3)cc3ncccc23)CC1)c1ccc(C(F)(F)F)o1 [Compound 133, N-((1s,4s)-4-((7-Morpholino-1,6-naphthyridin-5-yl)oxy)cyclohexyl)-5-(trifluoromethyl)furan-2-carboxamide] | 0.0005 to 0.001 | 0.1 to 1
23 | O=C(N[C@H]1CC[C@@H](Oc2nc(N3CCOCC3)cc3ncccc23)CC1)c1ccncc1 [Compound 113, N-((1s,4s)-4-((7-morpholino-1,6-naphthyridin-5-yl)oxy)cyclohexyl)isonicotinamide] | < 0.0005 | < 0.1
24 | Cc1nc(N[C@H]2CC[C@@H](Oc3nc(N4CCOCC4)cc4ncccc34)CC2)c2occc2n1 [Compound 81, 2-methyl-N-((1s,4s)-4-((7-morpholino-1,6-naphthyridin-5-yl)oxy)cyclohexyl)furo[3,2-d]pyrimidin-4-amine] | < 0.0005 | 0.1 to 1
25 | O=C(N[C@H]1CC[C@@H](Oc2nc(N3CCOCC3)cc3ncccc23)CC1)c1cncnc1 [Compound 122, N-((1s,4s)-4-((7-Morpholino-1,6-naphthyridin-5-yl)oxy)cyclohexyl)pyrimidine-5-carboxamide] | 0.001 to 0.01 | 0.1 to 1
26 | O=C(N[C@H]1CC[C@@H](Oc2nc(N3CCOCC3)cc3ncccc23)CC1)c1ccnnc1 [Compound 121, N-((1s,4s)-4-((7-morpholino-1,6-naphthyridin-5-yl)oxy)cyclohexyl)pyridazine-4-carboxamide] | 0.0005 to 0.001 | < 0.1
27 | CS(=O)(=O)Nc1cnc2cc(N3CCOCC3)nc(O[C@H]3CC[C@@H](NC(=O)c4ncco4)CC3)c2c1 [Compound 205, N-((1s,4s)-4-((3-(methylsulfonamido)-7-morpholino-1,6-naphthyridin-5-yl)oxy)cyclohexyl)oxazole-2-carboxamide] | 0.0005 to 0.001 | < 0.1
28 | NC(=O)c1cnc(N[C@H]2CC[C@@H](Oc3nc(N4CCOCC4)cc4ncccc34)CC2)nc1 [Compound 52, 2-(((1s,4s)-4-((7-morpholino-1,6-naphthyridin-5-yl)oxy)cyclohexyl)amino)pyrimidine-5-carboxamide] | < 0.0005 | < 0.1
29 | Oc1cnc2cc(N3CCOCC3)nc(O[C@H]3CC[C@@H](Nc4ncccn4)CC3)c2c1 [Compound 19a, 7-Morpholino-5-(((1s,4s)-4-(pyrimidin-2-ylamino)cyclohexyl)oxy)-1,6-naphthyridin-3-ol] | 0.001 to 0.01 | < 0.1
30 | O=C(N[C@H]1CC[C@@H](Oc2nc(N3CCOCC3)cc3ncccc23)CC1)c1nccs1 [Compound 135, N-((1s,4s)-4-((7-morpholino-1,6-naphthyridin-5-yl)oxy)cyclohexyl)thiazole-2-carboxamide] | < 0.0005 | 0.1 to 1
31 | Cc1ccnc(N[C@H]2CC[C@@H](Oc3nc(N4CCOCC4)cc4ncccc34)CC2)n1 [Compound 48, 4-methyl-N-((1s,4s)-4-((7-morpholino-1,6-naphthyridin-5-yl)oxy)cyclohexyl)pyrimidin-2-amine] | < 0.0005 | < 0.1

Reference: patent US20240246960A1 (adMare Therapeutics Society, priority 2021, published 2024)
